row,SMILES,melting point [°C]
1,CCCNC(=O)c1ccc2c(c1)C(=O)NC(C(Cl)(Cl)Cl)O2 (stereo unspecified),228 to 230
2,O=C1N=C(N2CCCCCC2)SC1=Cc1cccc(-c2ccc(O)c(C34CC5CC(CC(C5)C3)C4)c2)c1,321 to 324
3,COC(=O)C(Oc1ccccc1)c1ccc(I)cc1 (stereo unspecified),68 to 71
4,CCC1(CC)C(=O)c2cc(OCC(=O)O)c(C)c(C)c2C1=O,134 to 136
5,Cc1ccc(-c2cc(NCCNc3cc(-c4ccc(C)cc4)[nH]n3)n[nH]2)cc1,179
6,COCNC(=O)NC1CCCc2sccc21 (stereo unspecified),160 to 162
7,O=C(Nc1ccc(C(F)(F)F)cc1)O[C@H]1COC(c2ccccc2)=N[C@@H]1c1ccccc1 (racemic),140
8,CC(CO)CCCC(C)C1CC=C2C3=C(CCC21C)C1(C)CCC(O)C(C)(C)C1CC3 (stereo unspecified),180 to 181
9,C=CCNc1c(NC(CC)CC)cc(C)nc1Oc1c(C)cc(C)cc1C,86 to 88
10,CCOC(=O)C(C)(C)c1ccc2c(c1)Nc1ccccc1S2,96 to 99
11,CN(C)c1ccc(C(=N)Nc2cccc(NC(=O)C=Cc3ccccc3)c2)cc1,225 to 227
12,COCCOc1cc(N(C)S(=O)(=O)c2ccccn2)c2[nH]c(C3=NCC(CN4CCS(=O)CC4)S3)cc2c1 (stereo unspecified),182 to 183
13,CC(C)c1nccc2c(CO)cccc12,120 to 121
14,CCCCNc1cc(Cl)c2c(c1)C(c1ccccc1F)=NC(C)(C)C(=O)N2C,113 to 115
15,O=c1[nH]nc(-c2ccc3ccccc3c2)o1,197 to 199
16,Cc1ccc(-n2cc(C)cc2-c2ccc(S(N)(=O)=O)cc2)cc1,144 to 147
17,Nc1c(N=O)c(=O)[nH]c(=O)n1Cc1ccc(Cl)cc1,> 320
18,"OCC(OC1CCCCO1)c1ccc2sccc2c1 (single isomer, unassigned; (-))",62 to 77
19,COc1ccc(-c2c3ccccc3cc3sc4ccccc4c23)cc1C#N,230 to 232
20,CNC(=NCCSCc1[nH]cnc1C)NS(C)(=O)=O,133 to 134
21,Nc1cccc(-c2ccnc3c(Br)cnn23)c1,120 to 121
22,Cc1nc(-c2ccc([N+](=O)[O-])cc2)c(-c2ccc([N+](=O)[O-])cc2)[nH]1,230 to 232
23,COc1cc(C(=O)N(C)CC(CCN2CCC(C(=O)c3nc4ccccc4n3Cc3ccccn3)CC2)c2ccc(F)cc2)cc(OC)c1OC (stereo unspecified),30 to 35

row,SMILES,melting point [°C]
1,CCCCN(C(=O)CNC(=O)c1cc2ccccc2n1CC(=O)OC)c1c(OC)cc(C)cc1OC,139
2,O=C1c2ccccc2C(=O)N1Cc1cnc2n1-c1ccc(Cl)cc1C(c1ccccc1Cl)=NC2,218 to 220
3,OCc1nn(-c2ccc(Cl)cc2)c2c1CCCC2,125 to 126
4,CC(=O)NN=C(c1ccccc1)c1cc(C(C)(C)C)c(O)c(C(C)(C)C)c1,205 to 206
5,CS(=O)(=O)C1CCCC1Br (stereo unspecified),50 to 52
6,CCCCSc1nsnc1OC1CCNC1 (stereo unspecified),99 to 100
7,COc1cccc(CC(NC(=O)CCl)c2ccccc2)c1 (stereo unspecified),104 to 105
8,CCCCC1NCCc2ccc(C(=O)N[C@@H](Cc3cc(F)cc(F)c3)[C@H](O)CNCc3cccc(CC)c3)cc21 (stereo partly specified),121 to 124
9,O=[N+]([O-])C=C1NCC(c2ccccc2)O1 (stereo unspecified),139 to 141
10,Cn1c(C(F)(F)F)cc(=O)n(-c2cc(N(S(C)(=O)=O)S(C)(=O)=O)c(Cl)cc2F)c1=O,282 to 285
11,OCCC1CCc2cc(OCc3ccc(-c4ccccc4)cc3)ccc2C1 (stereo unspecified),101 to 102
12,CCOC(=O)c1cnn(-c2ccccc2[N+](=O)[O-])c1C(=O)OCC,45 to 46
13,C#CCN1CC(=O)N(c2ccc(Cl)cc2C)C1=S,99 to 102
14,Cc1cc(NC(=O)NC(=O)c2c(Cl)cccc2Cl)nc(C)c1-c1ccccc1,230 to 235
15,Cc1ccc(-c2ccc3ccccc3c2)n1CC[C@H]1C[C@H](O)CC(=O)O1 (relative stereo),45 to 50
16,CCCC1=C(C(=O)OCC)C(c2cccc(C)c2OC)c2c[nH]nc2N1 (stereo unspecified),220 to 222
17,CC(C)CNCC(=O)Nc1cccc2c1C(=O)c1c(NC(=O)CNCC(C)C)cccc1C2=O,139 to 140
18,CC#COc1ccc2c(C)cc(=O)oc2c1,140 to 141
19,C[C@@H](n1ccn(-c2ccc(OC(F)(F)C(F)F)cc2)c1=O)[C@@]1(c2ccc(F)cc2F)CO1,117 to 118
20,CC(C)(C)COc1ccc(N)cc1Br,45
21,CNc1nnnn1-c1ccccc1C(=O)O,152 to 154
22,Cc1c(N)c2c(c3c1C(c1ccc(C(C)C)cc1)CO3)CCCC2 (stereo unspecified),106 to 107

# The next lines start with the values.
row,melting point [°C],SMILES
1,191 to 192,COc1c(Cl)ccc(-c2nc(OC)c3c(ncn3C)n2)c1F
2,38 to 68,CN(CCC(=O)C(Cc1ccccc1)NC(=O)c1ccccc1)C(=O)N1CCCC1C(=O)O (stereo unspecified)
3,125 to 127,CCCCc1c(C)[nH]c(C(=O)OCC)c1OCC1CO1 (stereo unspecified)
4,206 to 208,Cc1cc(Oc2ccc3nc(COc4ccc(CC5SC(=O)NC5=O)cc4)n(C)c3c2)cc(C)c1NC(=O)Nc1ccc(C(F)(F)F)cc1 (stereo unspecified)
5,116,COc1ccc2ccc(I)cc2c1
6,123 to 124,C=CCn1c(C)c(C)c2cnnc(CCc3ccc(F)cc3)c21
7,114 to 116,Cc1nn(C)c2c1N(C(=O)CN1CCCC1)c1ccccc1NC2=O
8,48 to 58,CCOC(=O)c1sc(CBr)nc1C
9,175 to 177,COc1cc(C)nc(NC(=O)NS(=O)(=O)c2cccc3c2NC(C)C3)n1 (stereo unspecified)
10,114,NS(=O)(=O)c1ccc(-n2nc(C(F)(F)F)cc2-c2ccc(-c3cscn3)c(C(F)(F)F)c2)cn1
11,> 270,O=C(O)c1cc(Cl)c(Cl)cc1C(=O)Nc1cccc(-c2ccnc3c(C(=O)c4cccs4)cnn23)c1
12,85 to 86,O=C(c1c(F)cccc1F)N1COCN(c2ccc(SC(F)(C(F)(F)F)C(F)(F)F)cc2F)C1=O
13,124 to 125,CCC(O)(Cn1cncn1)C(C)(C)Cc1ccc(Cl)cc1 (stereo unspecified)
14,92 to 93,Cc1ccc(C2NCCS2)cc1 (stereo unspecified)
15,130 to 133,CCOC(=O)COc1cccc(C(=O)Nc2ccccc2Sc2ccccc2-c2nnn[nH]2)c1
16,137 to 144,FC(F)(F)c1[nH]c(-c2cccc(Cl)c2)nc1Br
17,97,CCCCc1ncc(C(=O)O)s1
18,238 to 246,O=S1(=O)NC(C2CCCCC2)Nc2ccc(-c3cccc(O)c3)cc21 (stereo unspecified)
19,280 to 282,CC(C)c1cc2c(=O)n3cc(C(N)=O)ccc3nc2s1
20,89 to 90,CCCCN(CCCC)CCCCCOc1ccc(S(=O)(=O)c2c(CC)cn3ccccc23)cc1
21,92 to 93,NS(=O)(=O)OCCOc1ccc(O)cc1
22,163 to 164,COc1cc(O)c2c(=O)c(OC)c(-c3ccc(OC(=O)C(C)(C)C)c(OC)c3)oc2c1
23,168,O=C(O)c1ccc2n1Cc1ccccc1N(C(=O)COc1ccc(Cl)cc1)C2
24,198,CC(Oc1cc(-c2ccccc2)nc2ccccc12)C(=O)N1CCSCC1 (stereo unspecified)
25,173 to 175,CC(C)CC(NC(=O)Cc1ccc(NC(=O)Nc2ccccn2)cc1)c1ncc(C(C)C(=O)O)s1 (stereo unspecified)
26,114 to 116,CN(C)C=CC(=O)c1ccncc1

# From a melting point compilation (Tetko et al.; mined from patent text by program, amines drawn as free bases though some values may be those of a salt)
